Measurements from ChEMBL document CHEMBL5356933, “Dual functional therapeutics: mitigating bacterial infection and associated inflammation” (RSC Med Chem, 2023).
In brackets after ≈: the same amount, converted by molar mass. Residues, ends and D or L forms follow the SMILES beside them.

Tests used:
Escherichia coli [1] = experiment: Antibacterial activity against Escherichia coli assessed as reduction in bacterial growth by broth micro-dilution method; type: functional
Streptococcus pneumoniae = experiment: Antibacterial activity against Streptococcus pneumoniae ATCC 49619 assessed as reduction in bacterial growth; type: functional
Staphylococcus aureus [2] = experiment: Antibacterial activity against methicillin-resistant Staphylococcus aureus ATCC 33591 assessed as reduction in bacterial growth incubated for 24 hrs by agar plate method; type: functional
Escherichia coli [3] = experiment: Antimicrobial activity against Escherichia coli ATCC 25922 assessed as reduction in microbial growth incubated for 24 hrs by CLSI based broth microdilution method; type: functional
Acinetobacter baumannii = experiment: Antibacterial activity against Acinetobacter baumannii ATCC 19606 assessed as bacterial growth inhibition at 32 ug/ml measured after 16 hrs by broth microdilution method; type: functional; settings: dose 32 µg/ml
J774.A1 [4] = experiment: Antiinflammatory activity against mouse J774.A1 cells assessed as inhibition of LPS-stimulated TNFalpha release measured at 10 uM after 30 mins by ELISA relative to control; type: functional; set-up: scale not given: the % may be the effect or the level left; settings: 0.5 h
J774.A1 [5] = experiment: Antiinflammatory activity in mouse J774.A1 cells assessed as decrease in LPS-induced IL-6 secretion at 20 uM preincubated for 30 mins followed by LPS stimulation and measured after 24 hrs by ELISA; type: functional; set-up: scale not given: the % may be the effect or the level left; settings: time 1470 min, 24.5 h
[6] = Hemolytic activity in human RBC assessed as hemolysis up to 100 microg/ml measured after 1 hr; type: toxicity, cell-based, Erythrocyte; settings: red blood cells (erythrocytes), dose < 100 µg/ml
Escherichia coli [7] = experiment: Antibacterial activity against Escherichia coli ATCC 25922 assessed as inhibition of bacterial growth incubated for 16 to 18 hrs by broth microdilution method; type: functional; settings: time 16-18 hrs
Staphylococcus aureus [8] = experiment: Antibacterial activity against Staphylococcus aureus ATCC 33591 assessed as reduction in bacterial growth; type: functional
[9] = system: Staphylococcus epidermidis; experiment: Antibacterial activity against Staphylococcus epidermidis assessed as reduction in microbial growth incubated for 24 hrs by broth micro-dilution method; type: functional
Escherichia coli [10] = experiment: Antibacterial activity against Escherichia coli ATCC 25922 assessed as reduction in bacterial growth by broth microdilution method; type: functional
Pseudomonas aeruginosa = experiment: Antibacterial activity against multi-drug resistant Pseudomonas aeruginosa assessed as reduction in bacterial growth by broth microdilution method; type: functional
RAW264.7 [11] = experiment: Anti-inflammatory activity against mouse RAW264.7 cells assessed as inhibition of LPS-induced NO production at 20 ug/ml relative to control; type: functional; set-up: scale not given: the % may be the effect or the level left; settings: dose 20 µg/ml
RAW264.7 [12] = experiment: Antiinflammatory activity in LPS-induced mouse RAW264.7 cells assessed as reduction in TNF alpha level at 20 ug/ml measured after 72 hrs by ELISA assay relative to control; type: functional; set-up: scale not given: the % may be the effect or the level left; settings: dose 20 µg/ml
RAW264.7 [13] = experiment: Anti-inflammatory activity in mouse RAW264.7 cells assessed as reduction in LPS-induced IL-6 mRNA expression at 20 ug/ml incubated for 24 hrs by qPCR analysis relative to control; type: functional; set-up: scale not given: the % may be the effect or the level left; settings: dose 20 µg/ml
RAW264.7 [14] = experiment: Immunosuppressive activity in LPS-treated mouse RAW264.7 cells assessed as inhibition of MCP-1 level at 20 ug/ml incubated for 24 hrs by ELISA analysis relative to control; type: functional; set-up: scale not given: the % may be the effect or the level left; settings: dose 20 µg/ml
RAW264.7 [15] = experiment: Anti-inflammatory activity against mouse RAW264.7 cells assessed as inhibition of LPS-induced NO production at 10 uM incubated for 24 hrs by Griess reagent based analysis relative to control; type: functional; set-up: scale not given: the % may be the effect or the level left
RAW264.7 [16] = experiment: Antiinflammatory activity against LPS-stimulated mouse RAW264.7 cells assessed as inhibition of TNFalpha production at 10 uM preincubated for 27 hrs followed by LPS stimulation and measured after 12 hrs by ELISA analysis relative to control; type: functional; set-up: scale not given: the % may be the effect or the level left; settings: time 39 hrs
Enterococcus faecium = experiment: Antibacterial activity against Enterococcus faecium clinical isolate assessed as reduction in cell growth incubated for 48 hrs by broth micro-dilution method; type: functional
Staphylococcus aureus [17] = experiment: Antibacterial activity against Staphylococcus aureus clinical isolate assessed as reduction in cell growth incubated for 48 hrs by broth micro-dilution method; type: functional
Klebsiella pneumoniae = experiment: Antibacterial activity against Klebsiella pneumoniae clinical isolate assessed as reduction in cell growth incubated for 48 hrs by broth micro-dilution method; type: functional
RAW264.7 [18] = experiment: Anti-inflammatory activity against mouse RAW264.7 cells assessed as reduction in LPS-induced TNFalpha production relative to control; type: functional; set-up: scale not given: the % may be the effect or the level left
RAW264.7 [19] = experiment: Anti-inflammatory activity against mouse RAW264.7 cells assessed as reduction in LPS-induced IL-6 mRNA production relative to control; type: functional; set-up: scale not given: the % may be the effect or the level left
[20] = Acute toxicity in Kunming mouse assessed as survival rate at 40 ug/kg, ip administered once daily for 14 days relative to control; type: organism-based; settings: in vivo, 0.04 mg/kg, time 14 day, read-out: Activity
[21] = Acute toxicity in Kunming mouse assessed as survival rate at 80 ug/kg, ip administered once daily for 14 days relative to control; type: organism-based; settings: in vivo, 0.08 mg/kg, time 14 day, read-out: Activity
[22] = Acute toxicity in Kunming mouse assessed as survival rate at 160 ug/kg, ip administered once daily for 14 days relative to control; type: organism-based; settings: in vivo, 0.16 mg/kg, time 14 day, read-out: Activity
RAW264.7 [23] = experiment: Antiinflammatory activity against LPS-induced mouse RAW264.7 cells assessed as reduction in IL-6 mRNA expression incubated for 24 hrs by RT-PCR analysis relative to control; type: functional; set-up: scale not given: the % may be the effect or the level left
RAW264.7 [24] = experiment: Antiinflammatory activity against mouse RAW264.7 cells assessed as reduction in TNF alpha production incubated for 24 hrs by ELISA method relative to control; type: functional; set-up: scale not given: the % may be the effect or the level left

Compound: NCCCOc1cc(OCCCN)cc(-c2cc(-c3ccccc3)cc(-c3cc(OCCCN)cc(OCCCN)c3)c2)c1
- MIC (Escherichia coli [1]): 3.13 µg/mL (≈ 5.23 µM)

Compound: CCCCCCCCCCN(Cc1cccc2ccccc12)C(=O)[C@@H](N)CCCCN
- MIC (Streptococcus pneumoniae): 4.1 µM (≈ 1.75 µg/mL)

Compound: CCCCCCN(Cc1ccc(-c2ccc(CN(CCCCCC)C(=O)[C@@H](N)CCCCN)cc2)cc1)C(=O)[C@@H](N)CCCCN
- MIC (Staphylococcus aureus [2]): 3.1 µg/mL (≈ 4.87 µM)

Compound: CCCCCCCCCCCCCCCC(=O)N(CC(N)=O)C[C@H](CCCCN)NC(=O)N1C[C@H](Cc2ccccc2)NC(=O)CN(C(=O)CCCN)C[C@H](Cc2ccccc2)NC(=O)CN(C(=O)CCCN)C[C@H](Cc2ccccc2)NC(=O)CN(C(=O)CCCN)C[C@H](Cc2ccccc2)NC(=O)CCC1=O
- MIC (Escherichia coli [3]): 1 µM

Compound: CC[C@H](C)[C@@H](NC(=O)[C@@H](CCCNC(=N)N)NC(=O)[C@@H](CCCNC(=N)N)NC(=O)[C@@H](CC(C)C)NC(=O)[C@@H](Cc1c[nH]c2ccccc12)NC(=O)[C@@H](C)NC(=O)[C@@H](CCCCN)NC(=O)[C@H](NC(=O)[C@@H](CCCNC(=N)N)NC(=O)[C@@H](CCCNC(=N)N)NC(=O)[C@@H](CC(C)C)NC(=O)[C@H](N)Cc1c[nH]c2ccccc12)[C@@H](C)CC)C(=O)N[C@H](CCCCN)C(=O)N[C@H](C)C(N)=O
- MIC (Acinetobacter baumannii): 2 µM (≈ 3.73 µg/mL)
- Activity (J774.A1 [4]): 64.7%
- Activity (J774.A1 [5]): 96.4%

Compound: CCOC(=O)[C@H](Cc1ccccc1)NC(=O)C[N+](C)(C)CCCCCCCCCCCC[N+](C)(C)CC(=O)N[C@H](Cc1ccccc1)C(=O)OCC
- HC50 at 1 h [6]: 758 µg/mL
- MIC (Escherichia coli [7]): 0.9 µg/mL

Compound: CCCCCCCCCCCCCCCC(=O)N(CCNC(=O)CN1C[C@H](Cc2ccccc2)NC(=O)[C@H](CCCCN)N(C(=O)CCc2ccccc2)CCNC(=O)[C@H](CCCCN)N(C(=O)CCc2ccccc2)CCNC(=O)[C@H](CCCCN)N(C(=O)CCc2ccccc2)CCNC(=O)CCC1=O)[C@@H](CCCCN)C(N)=O
- MIC (Staphylococcus aureus [8]): 2.4 µM (≈ 3.86 µg/mL)
- MIC [9]: 0.6 µM

Compound: CC[C@H](C)[C@H](NC(=O)[C@H](Cc1cnc[nH]1)NC(=O)[C@H](CO)NC(=O)[C@@H](NC(=O)[C@@H](NC(=O)[C@@H](NC(=O)[C@@H](NC(=O)[C@H](CCCNC(=N)N)NC(=O)[C@H](CC(C)C)NC(=O)[C@H](CCCCN)NC(=O)[C@H](CCC(=O)O)NC(=O)[C@H](CCCCN)NC(=O)[C@H](CC(C)C)NC(=O)[C@H](CCCCN)NC(=O)[C@H](CS)NC(=O)[C@H](CC(C)C)NC(=O)[C@H](Cc1ccccc1)NC(=O)[C@H](CC(N)=O)NC(=O)[C@H](CS)NC(=O)[C@@H](N)CCCCN)[C@@H](C)O)C(C)C)[C@@H](C)CC)[C@@H](C)O)C(=O)N[C@@H](CC(=O)O)C(=O)N[C@@H](CCCCN)C(=O)N[C@H](C(=O)N[C@@H](CC(C)C)C(=O)N[C@@H](CCCNC(=N)N)C(=O)N1CCC[C@H]1C(=O)N[C@@H](CCC(N)=O)C(=O)NCC(N)=O)C(C)C (H-KCNFLCKLKEKLRTVITSHIDKVLRPQG-NH2)
- MIC (Escherichia coli [10]): 4.69 µg/mL (≈ 1.44 µM)
- MIC (Pseudomonas aeruginosa): 37.5 µg/mL (≈ 11.5 µM)
- Activity (RAW264.7 [11]): 70%
- Activity (RAW264.7 [12]): 60%
- Activity (RAW264.7 [13]): 86%
- Activity (RAW264.7 [14]): 68%

Compound: CC(C)C[C@H](NC(=O)[C@H](Cc1c[nH]c2ccccc12)NC(=O)[C@H](CCCCN)NC(=O)[C@H](CCCCN)NC(=O)[C@H](Cc1c[nH]c2ccccc12)NC(=O)[C@H](CCCCN)NC(=O)[C@H](CCCCN)NC(=O)[C@H](Cc1c[nH]c2ccccc12)NC(=O)[C@H](CC(C)C)NC(=O)[C@@H](N)CCCCN)C(=O)N[C@@H](CCCCN)C(N)=O (H-KLWKKWKKWLK-NH2)
- Activity (RAW264.7 [15]): 50%

Compound: CC[C@H](C)[C@H](NC(=O)[C@H](CCCNC(=N)N)NC(=O)[C@H](CCCCN)NC(=O)[C@@H](NC(=O)[C@@H](NC(=O)[C@H](CCCNC(=N)N)NC(=O)[C@@H](N)CCCCN)[C@@H](C)CC)C(C)C)C(=O)N[C@@H](CCCCN)C(=O)N[C@@H](CCCCN)C(=O)N[C@@H](Cc1c[nH]c2ccccc12)C(=O)N[C@@H](CC(C)C)C(=O)N[C@@H](CCCNC(=N)N)C(N)=O (H-KRIVKRIKKWLR-NH2)
- Activity (RAW264.7 [16]): 74.2%

Compound: CC[C@H](C)[C@H](NC(=O)[C@H](Cc1c[nH]c2ccccc12)NC(=O)[C@H](CCCNC(=N)N)NC(=O)[C@H](CCC(N)=O)NC(=O)[C@@H](NC(=O)[C@H](Cc1c[nH]c2ccccc12)NC(=O)[C@H](CCCNC(=N)N)NC(=O)[C@@H](N)CCCNC(=N)N)C(C)C)C(=O)N[C@@H](CCCNC(=N)N)C(=O)N[C@@H](CCCNC(=N)N)C(=O)N[C@@H](Cc1c[nH]c2ccccc12)C(=O)N[C@@H](CCCNC(=N)N)C(=O)N[C@@H](CCCCN)C(=O)N[C@@H](Cc1c[nH]c2ccccc12)C(=O)N[C@H](C(=O)O)C(C)C (H-RRWVQRWIRRWRKWV-OH)
- MIC (Enterococcus faecium): 5 µM (≈ 11.3 µg/mL)
- MIC (Staphylococcus aureus [17]): 5 µM (≈ 11.3 µg/mL)
- MIC (Klebsiella pneumoniae): 5 µM (≈ 11.3 µg/mL)

Compound: CC(C)C[C@H](NC(=O)CNC(=O)[C@H](Cc1ccccc1)NC(=O)[C@H](CCCNC(=N)N)NC(=O)[C@H](CCCNC(=N)N)NC(=O)CNC(=O)[C@H](Cc1cnc[nH]1)NC(=O)[C@H](CCCNC(=N)N)NC(=O)CNC(=O)[C@@H](NC(=O)[C@H](C)NC(=O)[C@@H](N)CO)C(C)C)C(=O)N[C@@H](CCCNC(=N)N)C(=O)N[C@@H](CCCCN)C(=O)N[C@@H](Cc1cnc[nH]1)C(=O)N[C@@H](CCCNC(=N)N)C(=O)N[C@@H](CCCCN)C(=O)N[C@@H](Cc1cnc[nH]1)C(=O)O (H-SAVGRHGRRFGLRKHRKH-OH)
- Activity (RAW264.7 [18]): >50%
- Activity (RAW264.7 [19]): >50%
- survival at 336 h [20]: 10%
- survival at 336 h [21]: 70%
- survival at 336 h [22]: 75%
- Activity (RAW264.7 [23]): 46%
- Activity (RAW264.7 [24]): 75%
